Consider 1 compound from patent publication US11788092B2, “Recombinant microorganisms and uses therefor” (LanzaTech, Inc., priority 2021, dated 2023).

One series has as its system Synechococcus elongatus. Particulars: Begemann et al. 2013; cited from earlier work.
Series [1] deals with C. autoethanogenum strain with aldehyde::ferredoxin oxidoreductase (AOR) enzymes deleted. Put plainly: 3-HP challenge experiment, autotrophic growth in Schott bottles. It counts as cell-based, Clostridium autoethanogenum. The method, then:
FIGS. 2A-2B show autotrophic growth of Clostridium autoethanogenum Δaor strain in the presence of different amounts of 3-hydroxypropionic acid (at 0, 0.2, 0.5, 1, 2, 5 and 10 g/L) in Schott bottles. FIG. 2A: Growth profile; FIG. 2B: Peak Biomass. Unc=Unchallenged; N=2; Error bar=S.D.
To study the toxicity of 3-HP on autotrophic growth of C. autoethanogenum, a 3-HP challenge experiment (at 0, 0.2, 0.5, 1, 2, 5 and 10 g/L) was conducted in Schott bottles with synthetic gas blend (50% CO, 10% H2, 30% CO2 and 10% N2) using a strain with aldehyde::ferredoxin oxidoreductase (AOR) enzymes deleted (FIG. 2). […] Unc=Unchallenged; N=2; Error bar=S.D.

≈ marks a conversion by molar mass, not a printed value.

As for `O=C(O)CCO` [Strain 3-HP, 3-Hydroxypropionate], the minimal inhibitory concentration in the series with Synechococcus elongatus was 180 µg/mL (≈ 2000 µM). Also, the “effect on growth rate” value in series [1] (5 g/L 3-HP) was “reduced the growth rate”; in series [1] (10 g/L 3-HP) it was “more pronounced decrease in growth rate”. Moreover, in series [1] (5 g/L 3-HP, synthetic gas blend 50% CO, 10% H2, 30% CO2, 10% N2, N=2), the “reduction of peak OD600 nm vs unchallenged culture” value was 22%. For the same compound, in series [1] (10 g/L 3-HP, synthetic gas blend 50% CO, 10% H2, 30% CO2, 10% N2, N=2), the “decrease in peak OD600 nm vs unchallenged culture” value came out at 40%.
